Experiments:
[1] = target: T1, Serine/threonine-protein kinase 3 (Homo sapiens) (UniProt Q13188); details: Compound concentration 1000.0 nM
T1 sequence (whole entry): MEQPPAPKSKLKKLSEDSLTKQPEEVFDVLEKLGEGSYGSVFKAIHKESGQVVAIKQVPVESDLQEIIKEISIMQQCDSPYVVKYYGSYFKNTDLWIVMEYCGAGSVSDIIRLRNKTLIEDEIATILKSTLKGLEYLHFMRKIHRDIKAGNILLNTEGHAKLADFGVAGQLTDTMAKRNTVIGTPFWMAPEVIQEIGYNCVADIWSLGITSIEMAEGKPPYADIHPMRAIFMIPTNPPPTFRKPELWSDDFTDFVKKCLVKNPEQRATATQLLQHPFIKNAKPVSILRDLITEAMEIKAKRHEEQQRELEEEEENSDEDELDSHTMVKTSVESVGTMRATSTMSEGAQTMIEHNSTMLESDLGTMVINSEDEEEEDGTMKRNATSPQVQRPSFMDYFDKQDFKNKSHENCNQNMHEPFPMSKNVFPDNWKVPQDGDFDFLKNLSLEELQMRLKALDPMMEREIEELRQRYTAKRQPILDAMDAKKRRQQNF

[2] = target: Kappa-type opioid receptor (Homo sapiens) (UniProt P41145); details: Compound concentration 10.0 uM
[3] = target: Cyclin-dependent kinase 18 (Homo sapiens) (UniProt Q07002); details: Compound concentration 1000.0 nM
[4] = target: T2, Serine/threonine-protein kinase TAO3 (Homo sapiens) (UniProt Q9H2K8); details: Compound concentration 1000.0 nM
T2 sequence (whole entry): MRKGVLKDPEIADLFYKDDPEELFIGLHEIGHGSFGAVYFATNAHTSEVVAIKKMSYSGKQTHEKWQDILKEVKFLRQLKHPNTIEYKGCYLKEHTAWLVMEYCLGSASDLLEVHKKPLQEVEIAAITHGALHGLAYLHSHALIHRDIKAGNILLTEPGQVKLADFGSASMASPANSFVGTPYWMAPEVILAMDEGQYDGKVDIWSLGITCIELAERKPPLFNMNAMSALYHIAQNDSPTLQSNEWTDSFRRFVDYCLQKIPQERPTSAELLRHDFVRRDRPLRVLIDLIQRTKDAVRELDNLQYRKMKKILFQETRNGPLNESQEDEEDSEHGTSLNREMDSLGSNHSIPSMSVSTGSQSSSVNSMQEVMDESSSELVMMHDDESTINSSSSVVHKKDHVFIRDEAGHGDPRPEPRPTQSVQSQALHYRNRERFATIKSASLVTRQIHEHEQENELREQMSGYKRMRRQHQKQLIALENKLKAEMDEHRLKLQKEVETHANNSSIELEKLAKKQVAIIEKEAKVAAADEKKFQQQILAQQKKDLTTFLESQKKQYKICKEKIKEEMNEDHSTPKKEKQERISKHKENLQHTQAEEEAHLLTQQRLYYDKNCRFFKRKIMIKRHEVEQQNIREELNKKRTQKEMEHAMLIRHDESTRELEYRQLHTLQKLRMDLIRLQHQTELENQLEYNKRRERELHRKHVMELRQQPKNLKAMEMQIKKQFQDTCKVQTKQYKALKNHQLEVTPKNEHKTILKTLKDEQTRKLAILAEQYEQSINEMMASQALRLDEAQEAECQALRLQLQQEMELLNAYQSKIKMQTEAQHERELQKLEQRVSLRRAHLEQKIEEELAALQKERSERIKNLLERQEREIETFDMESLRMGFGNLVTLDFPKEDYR

[5] = target: Myotonin-protein kinase (Homo sapiens) (UniProt Q09013); details: Compound concentration 1000.0 nM
[6] = target: Mast/stem cell growth factor receptor Kit (Homo sapiens) (UniProt P10721); details: Compound concentration 1000.0 nM
[7] = test system: Phosphatidylinositol 4,5-bisphosphate 3-kinase catalytic subunit alpha isoform (Homo sapiens), P42336 [C420R]; details: Compound concentration 1000.0 nM
[8] = test system: Tyrosine-protein kinase ABL1 (Homo sapiens), P00519 [Q252H]; details: Compound concentration 1000.0 nM
[9] = target: Serine/threonine-protein kinase PLK2 (Homo sapiens) (UniProt Q9NYY3); details: Compound concentration 1000.0 nM
[10] = target: Casein kinase I isoform gamma-2 (Homo sapiens) (UniProt P78368); details: Compound concentration 1000.0 nM
[11] = target: Insulin-like growth factor 1 receptor (Homo sapiens) (UniProt P08069); details: Compound concentration 1000.0 nM
[12] = target: T3, SNF-related serine/threonine-protein kinase (Homo sapiens) (UniProt Q9NRH2); details: Compound concentration 1000.0 nM
T3 sequence (whole entry): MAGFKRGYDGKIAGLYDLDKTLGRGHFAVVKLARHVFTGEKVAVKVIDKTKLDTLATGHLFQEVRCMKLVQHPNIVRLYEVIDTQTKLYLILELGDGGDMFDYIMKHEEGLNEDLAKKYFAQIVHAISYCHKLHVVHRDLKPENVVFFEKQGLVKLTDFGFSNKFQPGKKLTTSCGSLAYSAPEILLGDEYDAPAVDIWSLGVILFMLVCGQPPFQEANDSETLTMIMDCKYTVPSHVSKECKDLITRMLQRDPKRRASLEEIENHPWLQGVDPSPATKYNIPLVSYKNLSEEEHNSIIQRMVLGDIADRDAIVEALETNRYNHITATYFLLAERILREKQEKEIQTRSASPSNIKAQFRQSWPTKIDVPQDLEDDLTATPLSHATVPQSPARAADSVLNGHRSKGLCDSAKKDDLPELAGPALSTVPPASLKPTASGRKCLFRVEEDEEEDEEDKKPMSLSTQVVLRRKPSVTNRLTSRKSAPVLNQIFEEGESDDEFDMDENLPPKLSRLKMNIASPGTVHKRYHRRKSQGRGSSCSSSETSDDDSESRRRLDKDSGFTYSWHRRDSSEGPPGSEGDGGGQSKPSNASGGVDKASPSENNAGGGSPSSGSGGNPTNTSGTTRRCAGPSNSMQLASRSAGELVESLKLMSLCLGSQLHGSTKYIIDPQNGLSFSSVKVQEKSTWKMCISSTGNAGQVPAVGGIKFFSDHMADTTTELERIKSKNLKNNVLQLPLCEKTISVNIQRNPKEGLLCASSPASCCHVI

Serine/threonine-protein kinase PLK2 (Homo sapiens), sequence (Q9NYY3 whole entry, looked up, canonical isoform): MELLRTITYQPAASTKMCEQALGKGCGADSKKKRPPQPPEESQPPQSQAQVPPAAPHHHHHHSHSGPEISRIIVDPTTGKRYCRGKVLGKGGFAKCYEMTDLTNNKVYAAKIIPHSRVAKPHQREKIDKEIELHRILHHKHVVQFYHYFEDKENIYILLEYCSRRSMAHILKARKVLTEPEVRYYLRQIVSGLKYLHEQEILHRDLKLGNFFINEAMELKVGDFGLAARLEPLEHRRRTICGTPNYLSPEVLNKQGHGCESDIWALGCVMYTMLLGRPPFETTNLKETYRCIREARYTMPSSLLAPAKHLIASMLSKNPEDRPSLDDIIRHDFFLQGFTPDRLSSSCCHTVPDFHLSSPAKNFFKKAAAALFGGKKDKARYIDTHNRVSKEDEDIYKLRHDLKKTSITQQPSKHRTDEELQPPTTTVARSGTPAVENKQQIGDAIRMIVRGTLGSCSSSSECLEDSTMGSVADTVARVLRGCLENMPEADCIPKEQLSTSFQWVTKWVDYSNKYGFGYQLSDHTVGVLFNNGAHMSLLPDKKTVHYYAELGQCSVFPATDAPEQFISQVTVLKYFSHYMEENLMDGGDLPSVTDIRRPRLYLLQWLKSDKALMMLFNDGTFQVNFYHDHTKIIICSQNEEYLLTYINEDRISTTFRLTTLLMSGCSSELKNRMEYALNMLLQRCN
Phosphatidylinositol 4,5-bisphosphate 3-kinase catalytic subunit alpha isoform (Homo sapiens), P42336 [C420R], sequence (P42336 whole entry C420R, canonical isoform): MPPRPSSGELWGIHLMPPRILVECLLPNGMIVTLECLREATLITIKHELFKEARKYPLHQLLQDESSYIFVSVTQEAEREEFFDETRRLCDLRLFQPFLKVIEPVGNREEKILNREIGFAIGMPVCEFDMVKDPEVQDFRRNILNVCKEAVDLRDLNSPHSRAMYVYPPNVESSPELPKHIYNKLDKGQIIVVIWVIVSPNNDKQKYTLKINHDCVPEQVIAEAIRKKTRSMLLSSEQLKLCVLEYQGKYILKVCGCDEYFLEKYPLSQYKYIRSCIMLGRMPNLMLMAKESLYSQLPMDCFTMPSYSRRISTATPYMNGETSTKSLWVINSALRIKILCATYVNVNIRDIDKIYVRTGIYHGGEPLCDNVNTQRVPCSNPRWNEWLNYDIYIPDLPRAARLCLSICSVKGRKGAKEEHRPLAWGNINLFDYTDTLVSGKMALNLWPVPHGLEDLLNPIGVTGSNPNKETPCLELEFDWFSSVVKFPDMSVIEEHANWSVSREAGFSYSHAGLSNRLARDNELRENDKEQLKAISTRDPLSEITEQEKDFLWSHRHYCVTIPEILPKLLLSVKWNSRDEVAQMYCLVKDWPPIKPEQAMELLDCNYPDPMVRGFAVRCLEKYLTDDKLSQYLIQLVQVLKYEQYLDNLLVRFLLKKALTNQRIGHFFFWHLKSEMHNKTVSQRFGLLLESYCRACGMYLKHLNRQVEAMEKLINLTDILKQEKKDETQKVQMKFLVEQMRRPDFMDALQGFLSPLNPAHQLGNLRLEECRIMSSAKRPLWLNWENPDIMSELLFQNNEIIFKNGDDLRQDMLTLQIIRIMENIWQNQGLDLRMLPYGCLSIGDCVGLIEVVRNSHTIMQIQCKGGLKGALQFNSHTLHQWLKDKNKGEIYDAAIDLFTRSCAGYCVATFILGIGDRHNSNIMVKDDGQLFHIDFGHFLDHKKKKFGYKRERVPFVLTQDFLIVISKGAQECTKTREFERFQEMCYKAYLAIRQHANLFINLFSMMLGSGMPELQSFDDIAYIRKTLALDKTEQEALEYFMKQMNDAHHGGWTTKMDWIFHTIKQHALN
Kappa-type opioid receptor (Homo sapiens), sequence (P41145 whole entry): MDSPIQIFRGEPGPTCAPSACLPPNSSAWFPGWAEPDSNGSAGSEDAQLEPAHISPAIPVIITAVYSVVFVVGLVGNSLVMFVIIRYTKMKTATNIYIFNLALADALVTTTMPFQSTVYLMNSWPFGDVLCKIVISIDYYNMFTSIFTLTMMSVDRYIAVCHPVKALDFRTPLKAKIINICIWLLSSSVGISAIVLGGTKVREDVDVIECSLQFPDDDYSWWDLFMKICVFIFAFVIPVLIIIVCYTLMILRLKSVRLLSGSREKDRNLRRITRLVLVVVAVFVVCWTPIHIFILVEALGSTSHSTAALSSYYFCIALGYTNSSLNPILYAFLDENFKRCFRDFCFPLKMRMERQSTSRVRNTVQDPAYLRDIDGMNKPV
Casein kinase I isoform gamma-2 (Homo sapiens), sequence (P78368 whole entry, looked up, canonical isoform): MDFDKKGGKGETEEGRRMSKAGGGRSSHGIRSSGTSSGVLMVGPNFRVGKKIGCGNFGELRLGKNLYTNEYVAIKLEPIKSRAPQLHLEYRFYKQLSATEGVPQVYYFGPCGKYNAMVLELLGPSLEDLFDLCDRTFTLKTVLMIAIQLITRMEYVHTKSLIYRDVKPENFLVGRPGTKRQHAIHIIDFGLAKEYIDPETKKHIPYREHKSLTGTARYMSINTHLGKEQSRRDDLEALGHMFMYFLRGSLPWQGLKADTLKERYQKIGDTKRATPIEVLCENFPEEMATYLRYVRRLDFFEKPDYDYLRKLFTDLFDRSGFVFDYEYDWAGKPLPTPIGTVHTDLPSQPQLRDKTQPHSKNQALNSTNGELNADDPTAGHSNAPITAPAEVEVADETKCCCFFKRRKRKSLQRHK
Cyclin-dependent kinase 18 (Homo sapiens), sequence (Q07002 whole entry): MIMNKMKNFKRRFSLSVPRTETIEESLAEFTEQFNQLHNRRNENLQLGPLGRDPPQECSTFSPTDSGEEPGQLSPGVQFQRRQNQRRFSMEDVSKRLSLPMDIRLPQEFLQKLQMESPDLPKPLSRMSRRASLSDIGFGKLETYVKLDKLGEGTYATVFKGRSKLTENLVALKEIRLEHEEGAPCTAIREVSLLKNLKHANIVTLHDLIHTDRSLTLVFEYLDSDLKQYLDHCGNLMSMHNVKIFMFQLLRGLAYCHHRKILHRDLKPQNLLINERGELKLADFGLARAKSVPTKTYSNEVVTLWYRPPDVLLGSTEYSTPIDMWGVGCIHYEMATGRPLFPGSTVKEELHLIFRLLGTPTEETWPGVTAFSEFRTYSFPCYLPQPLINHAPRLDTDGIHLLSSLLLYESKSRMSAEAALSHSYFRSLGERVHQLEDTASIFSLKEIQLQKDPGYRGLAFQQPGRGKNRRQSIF
Insulin-like growth factor 1 receptor (Homo sapiens), sequence (P08069 31-736 limits assumed): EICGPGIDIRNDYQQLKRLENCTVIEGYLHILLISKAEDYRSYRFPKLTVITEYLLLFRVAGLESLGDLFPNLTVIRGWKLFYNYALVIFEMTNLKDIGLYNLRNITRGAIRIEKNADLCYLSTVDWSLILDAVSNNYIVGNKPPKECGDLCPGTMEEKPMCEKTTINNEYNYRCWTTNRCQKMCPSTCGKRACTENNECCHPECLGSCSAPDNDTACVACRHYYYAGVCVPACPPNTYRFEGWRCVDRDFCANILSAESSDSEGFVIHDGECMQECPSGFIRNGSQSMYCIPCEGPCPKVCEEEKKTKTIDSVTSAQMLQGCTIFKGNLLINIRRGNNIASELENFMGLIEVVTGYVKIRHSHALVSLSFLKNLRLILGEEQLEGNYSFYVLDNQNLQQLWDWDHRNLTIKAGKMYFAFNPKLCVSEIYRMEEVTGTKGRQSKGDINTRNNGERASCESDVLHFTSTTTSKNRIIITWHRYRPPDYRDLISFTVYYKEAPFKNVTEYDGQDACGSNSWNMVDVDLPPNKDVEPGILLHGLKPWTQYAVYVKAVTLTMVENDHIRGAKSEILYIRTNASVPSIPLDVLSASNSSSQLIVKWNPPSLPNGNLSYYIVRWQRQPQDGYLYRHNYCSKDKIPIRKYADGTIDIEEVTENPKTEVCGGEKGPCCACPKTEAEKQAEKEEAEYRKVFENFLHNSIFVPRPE
Insulin-like growth factor 1 receptor (Homo sapiens), sequence (P08069 741-1367 limits assumed): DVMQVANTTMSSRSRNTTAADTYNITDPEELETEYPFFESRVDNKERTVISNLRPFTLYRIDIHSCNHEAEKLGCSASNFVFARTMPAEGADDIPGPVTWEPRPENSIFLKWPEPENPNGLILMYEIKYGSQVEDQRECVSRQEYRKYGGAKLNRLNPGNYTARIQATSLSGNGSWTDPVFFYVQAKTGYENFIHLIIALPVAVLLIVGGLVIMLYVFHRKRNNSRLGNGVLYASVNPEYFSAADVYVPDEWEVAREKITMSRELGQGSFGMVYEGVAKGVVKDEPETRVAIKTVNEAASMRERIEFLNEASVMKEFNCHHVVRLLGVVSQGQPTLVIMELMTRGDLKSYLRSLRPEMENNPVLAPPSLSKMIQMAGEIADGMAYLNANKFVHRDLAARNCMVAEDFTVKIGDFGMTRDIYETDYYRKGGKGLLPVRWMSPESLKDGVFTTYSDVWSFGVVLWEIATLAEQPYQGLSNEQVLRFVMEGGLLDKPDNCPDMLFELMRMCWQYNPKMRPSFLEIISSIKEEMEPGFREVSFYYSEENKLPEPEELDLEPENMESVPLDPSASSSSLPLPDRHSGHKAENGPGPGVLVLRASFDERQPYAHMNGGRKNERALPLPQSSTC
Myotonin-protein kinase (Homo sapiens), sequence (Q09013 whole entry): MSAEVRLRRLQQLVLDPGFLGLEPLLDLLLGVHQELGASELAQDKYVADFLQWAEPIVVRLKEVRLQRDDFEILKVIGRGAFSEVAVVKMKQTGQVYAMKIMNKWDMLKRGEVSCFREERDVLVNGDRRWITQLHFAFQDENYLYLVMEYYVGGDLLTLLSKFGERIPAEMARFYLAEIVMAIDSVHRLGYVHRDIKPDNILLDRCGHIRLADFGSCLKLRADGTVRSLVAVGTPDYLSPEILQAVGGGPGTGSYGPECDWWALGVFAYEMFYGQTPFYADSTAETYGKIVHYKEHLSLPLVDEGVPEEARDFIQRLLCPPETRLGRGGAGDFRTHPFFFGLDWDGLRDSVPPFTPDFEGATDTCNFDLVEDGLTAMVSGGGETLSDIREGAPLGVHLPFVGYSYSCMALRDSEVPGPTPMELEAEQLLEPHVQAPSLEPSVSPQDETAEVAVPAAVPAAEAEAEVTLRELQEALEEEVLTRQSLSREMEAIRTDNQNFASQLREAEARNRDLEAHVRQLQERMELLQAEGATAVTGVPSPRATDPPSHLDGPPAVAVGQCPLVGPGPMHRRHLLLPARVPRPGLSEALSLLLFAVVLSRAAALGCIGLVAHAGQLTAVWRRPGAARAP

Cc1nc(C2CCN(C(=O)c3ccc(OC(F)(F)F)cc3N)CC2)c2ncc(N3CCN(C)CC3)cc2n1 [BAY-693]
inactive: residual activity [1] 79% | inhibition [2] 21.2% | residual activity [3] 100% | residual activity [4] 100% | residual activity [5] 100% | residual activity [6] 76% | residual activity [7] 86% | residual activity [8] 81% | residual activity [9] 74% | residual activity [10] 93% | residual activity [11] 91% | residual activity [12] 78%

CN1CCN(c2cnc3c(C4CCN(C(=O)c5ccc(OC(F)(F)F)cc5N)CC4)ncnc3c2)CC1 [BAY-885]
inactive: residual activity [1] 82% | inhibition [2] 9.37% | residual activity [3] 100% | residual activity [4] 100% | residual activity [5] 89% | residual activity [6] 85% | residual activity [7] 94% | residual activity [8] 79% | residual activity [9] 93% | residual activity [10] 100% | residual activity [11] 100% | residual activity [12] 87%
